Source: patent US20110105381A2, “Prodrugs of Peripheral Phenolic Opioid Antagonists” (PharmacoFore, Inc., priority 2007, published 2011)
Counter-ions that a name gives are not always drawn.

Assay: Plasma timecourse of N-MNLX following PO administration to rat
Type: in vivo, male Sprague-Dawley rats
Details: oral dosing in rats; Cmax and/or persistence of exposure compared with N-MNLX itself
Protocol: (§1) Plasma Timecourse of Peripheral Phenolic Opioid Antagonists Following PO Administration to Rat
(§2) Oral dosing: The test compounds were dissolved in saline and dosed via oral gavage into jugular vein cannulated male Sprague-Dawley rats. N-MTX and N-MNLX, each at 20 mg/kg, were used as positive controls and the test compounds were dosed at the doses indicated in Tables 1 and 2. At specified time points, blood samples were withdrawn, quenched into methanol, centrifuged at 14000 rpm @ 4° C., and stored at −80° C. until analysis. Samples were quantified via LC/MS/MS using an ABI 3000 triple-quad mass spectrometer.

Compound	pharmacokinetic profile (e.g. oral bioavailability), N-MNLX
C=CC[N+]1(C)CC[C@]23c4c5ccc(OC(=O)N(C)CCN)c4O[C@H]2C(=O)CC[C@@]3(O)[C@H]1C5 (stereo partly shown) [Example 14, N-Methylnaloxone 3-(N-methyl-N-(2-aminoethyl))carbamate]	improved pharmacokinetic profile
C=CC[N+]1(C)CC[C@]23c4c5ccc(O)c4O[C@H]2C(=O)CC[C@@]3(O)[C@H]1C5.[Br-] (stereo partly shown) [N-MNLX, N-methylnaloxone, reference compound]	poor pharmacokinetic profiles

Assay: not given
Details: rat, in vivo

Compound	pharmacokinetic profile (e.g. oral bioavailability), N-MTX
CN(CCN)C(=O)Oc1ccc2c3c1O[C@H]1C(=O)CC[C@@]4(O)[C@@H](C2)[N+](C)(CC2CC2)CC[C@]314.Cl.[Cl-] (stereo partly drawn) [Example 1, (R)—N-Methylnaltrexone 3-(N-methyl-N-(2-aminoethyl))carbamate]	improved pharmacokinetic profile

Assay: Plasma timecourse of N-MTX following PO administration to rat
Details: oral dosing in rats at the doses of Table 1
Protocol: as §1, §2

Compound	detectable levels of N-MTX
C[C@H](N)C(=O)NCCN(C)C(=O)Oc1ccc2c3c1O[C@H]1C(=O)CC[C@@]4(O)C(C2)[N@+](C)(CC2CC2)CC[C@]314 [Example 8, (R)—N-Methylnaltrexone 3-(N-methyl-N-(2-N-alaninylamino))ethylcarbamate]	did not afford detectable levels of N-MTX
CN(CCNC(=O)[C@@H](N)Cc1ccc(O)cc1)C(=O)Oc1ccc2c3c1O[C@H]1C(=O)CC[C@@]4(O)C(C2)[N@+](C)(CC2CC2)CC[C@]314 [Example 7, (R)—N-Methylnaltrexone 3-(N-methyl-N-(2-N-tyrosinylamino))ethylcarbamate]	did not afford detectable levels of N-MTX
C[C@H](NC(=O)CN)C(=O)NCCN(C)C(=O)Oc1ccc2c3c1O[C@H]1C(=O)CC[C@@]4(O)C(C2)[N@+](C)(CC2CC2)CC[C@]314 [Example 12, (R)—N-Methylnaltrexone 3-(N-methyl-N-(2-N-glycinylalaninylamino))-ethylcarbamate]	did not afford detectable levels of N-MTX
CN(CCNC(=O)[C@@H](N)CC(N)=O)C(=O)Oc1ccc2c3c1O[C@H]1C(=O)CC[C@@]4(O)C(C2)[N@+](C)(CC2CC2)CC[C@]314 [Example 5, (R)—N-Methylnaltrexone 3-(N-methyl-N-(2-N-asparaginylamino))ethylcarbamate]	did not afford detectable levels of N-MTX
CN(CCNC(=O)[C@@H](N)CCCCN)C(=O)Oc1ccc2c3c1O[C@H]1C(=O)CC[C@@]4(O)C(C2)[N@+](C)(CC2CC2)CC[C@]314 [Example 9, (R)—N-Methylnaltrexone 3-(N-methyl-N-(2-N-lysinylamino))ethylcarbamate]	did not afford detectable levels of N-MTX
CC(=O)N[C@@H](CCCNC(=N)N)C(=O)NCCN(C)C(=O)Oc1ccc2c3c1O[C@H]1C(=O)CC[C@@]4(O)C(C2)[N@+](C)(CC2CC2)CC[C@]314 [Example 4, (R)—N-Methylnaltrexone 3-(N-methyl-N-(2-N-acetylarginylamino))ethylcarbamate]	did not afford detectable levels of N-MTX

Same assay, conditions: oral dosing in rats; Cmax and/or persistence of exposure compared with N-MTX itself

Compound	pharmacokinetic profile (e.g. oral bioavailability), N-MTX
CN(CCNC(=O)[C@H](CCCNC(=N)N)NC(=O)CN)C(=O)Oc1ccc2c3c1O[C@H]1C(=O)CC[C@@]4(O)C(C2)[N@+](C)(CC2CC2)CC[C@]314 [Example 10, (R)—N-Methylnaltrexone 3-(N-methyl-N-(2-N-glycinylarginylamino))ethylcarbamate]	improved pharmacokinetic profile
CN(CCNC(=O)[C@@H](N)CC(=O)O)C(=O)Oc1ccc2c3c1O[C@H]1C(=O)CC[C@@]4(O)C(C2)[N@+](C)(CC2CC2)CC[C@]314 [Example 6, (R)—N-Methylnaltrexone 3-(N-methyl-N-(2-N-aspartinylamino))ethylcarbamate]	improved pharmacokinetic profile
CC(=O)NCC(=O)N[C@@H](CCCNC(=N)N)C(=O)NCCN(C)C(=O)Oc1ccc2c3c1O[C@H]1C(=O)CC[C@@]4(O)C(C2)[N@+](C)(CC2CC2)CC[C@]314 [Example 11, (R)—N-Methylnaltrexone 3-(N-methyl-N-(2-N—(N-acetyl)glycinylarginylamino))-ethylcarbamate]	improved pharmacokinetic profile
CC(C)C[C@H](N)C(=O)NCCN(C)C(=O)Oc1ccc2c3c1O[C@H]1C(=O)CC[C@@]4(O)C(C2)[N@+](C)(CC2CC2)CC[C@]314 [Example 2, (R)—N-Methylnaltrexone 3-(N-methyl-N-(2-leucinylamino))ethylcarbamate Hydrochloride]	improved pharmacokinetic profile
CN(CCNC(=O)[C@@H](N)CCCNC(=N)N)C(=O)Oc1ccc2c3c1O[C@H]1C(=O)CC[C@@]4(O)C(C2)[N@+](C)(CC2CC2)CC[C@]314 [Example 3, (R)—N-Methylnaltrexone 3-(N-methyl-N-(2-arginylamino))ethylcarbamate]	improved pharmacokinetic profile
C[N@@+]1(CC2CC2)CC[C@]23c4c5ccc(O)c4O[C@H]2C(=O)CC[C@@]3(O)C1C5 [N-MTX, (R)—N-methylnaltrexone, reference compound]	poor pharmacokinetic profiles
CN(CCNC(=O)[C@H](Cc1ccccc1)NC(=O)CN)C(=O)Oc1ccc2c3c1O[C@H]1C(=O)CC[C@@]4(O)C(C2)[N@+](C)(CC2CC2)CC[C@]314 [Example 13, (R)—N-Methylnaltrexone 3-(N-methyl-N-(2-N-glycinylphenylalaninylamino))-ethylcarbamate]	improved pharmacokinetic profile
